Results reported in patent US20160108049A1 (TAKEDA Gmbh, priority 2011, published 2016).

Experiments:
[1] = target: T1, PDE4B1 (Homo sapiens, UniProt Q07343); test: Inhibition of PDE4 activity (PDE4B1, SPA assay); type: biochemical; settings: recombinant PDE4B1, 0.5 μM cAMP; read-out: PDE4B1 Inhibitory values measured as -logIC50 (converted)
T1 construct: made in house; host or cells: SF21 insect cells (baculovirus; virus made in SF9 cells, pCR-Bac vector)
Outline: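 Baculovirus-expressed enzyme from SF21 cell 1000×g supernatant; substrate 0.5 μM [3H]cAMP in 20 mM Tris pH 7.4, 5 mM Mg2+, 0.1 mg/ml BSA, 10-20% conversion. 5 min preincubation at 37 °C, 15 min reaction, stopped by SPA beads with IBMX; IC50 by non-linear regression.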

[2] = target: T2, human PDE5 (Homo sapiens, UniProt O76074); test: Inhibition of PDE5 activity (platelet lysate, SPA assay); type: biochemical; settings: 0.5 μM cGMP, read-out: PDE5 Inhibitory values measured as -logIC50 (converted)
T2 construct: from tissue; host or cells: human platelets from fresh donor blood (platelet lysate)
Outline: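 Human platelet lysate (10,000 g supernatant) served as PDE5 source, with 1 μM motapizone and 10 nM PDE2 inhibitor added, in Tris pH 7.4, 5 mM Mg2+, BSA. Substrate 0.5 μM [3H]cGMP, 10–20% conversion; 5 min preincubation then 15 min at 37 °C, stopped by SPA beads with IBMX. IC50 by non-linear regression.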

T1 sequence (Q07343 whole entry): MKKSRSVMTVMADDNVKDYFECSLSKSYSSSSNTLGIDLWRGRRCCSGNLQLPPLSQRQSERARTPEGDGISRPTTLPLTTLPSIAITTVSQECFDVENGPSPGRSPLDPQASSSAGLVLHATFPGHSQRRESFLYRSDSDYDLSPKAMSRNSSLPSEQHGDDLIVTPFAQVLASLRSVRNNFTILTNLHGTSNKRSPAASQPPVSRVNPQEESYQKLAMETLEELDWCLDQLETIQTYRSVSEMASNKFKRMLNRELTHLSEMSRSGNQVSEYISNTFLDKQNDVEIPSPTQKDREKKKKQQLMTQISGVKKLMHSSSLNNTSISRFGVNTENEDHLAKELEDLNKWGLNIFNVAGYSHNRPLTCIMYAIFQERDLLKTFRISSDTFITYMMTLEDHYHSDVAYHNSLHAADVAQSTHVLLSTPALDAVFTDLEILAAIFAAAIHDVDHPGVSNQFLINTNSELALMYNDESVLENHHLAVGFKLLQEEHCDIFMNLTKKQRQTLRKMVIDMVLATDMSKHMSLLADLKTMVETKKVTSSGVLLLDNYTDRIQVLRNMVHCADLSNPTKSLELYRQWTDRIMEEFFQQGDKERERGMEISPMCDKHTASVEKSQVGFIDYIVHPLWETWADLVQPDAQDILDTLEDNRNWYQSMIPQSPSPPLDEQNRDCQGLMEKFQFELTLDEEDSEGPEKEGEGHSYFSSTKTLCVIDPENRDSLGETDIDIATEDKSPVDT

| IC50 [1] | IC50 [2] | SMILES |
| --- | --- | --- |
| < 1 nM | 1 to 10 nM | COc1ccc(C2=NN(C3CCN(C(=O)[C@H](CO)NC(=O)c4c[nH]c5c(-c6c(OCC7CC7)ccc7c6OCO7)ncnc45)CC3)C(=O)[C@@H]3CCCC[C@H]23)cc1OC [Example 60, 4-[5-(cyclopropylmethoxy)-1,3-benzodioxol-4-yl]-N-[(2S)-1-{4-[(4aS,8aR)-4-(3,4-dimethoxyphenyl)-1-oxo-4a,5,6,7,8,8a-hexahydrophthalazin-2(1H)-yl]piperidin-1-yl}-3-hydroxy-1-oxopropan-2-yl]-5H-pyrrolo[3,2-d]pyrimidine-7-carboxamide] |
| < 1 nM | < 1 nM | COc1ccc(C2=NN(C3CCN(C(=O)[C@H](Cc4cccnc4)NC(=O)c4c[nH]c5c(-c6c(OCC7CC7)ccc7c6OCO7)ncnc45)CC3)C(=O)[C@@H]3CCCC[C@H]23)cc1OC [Example 43, 4-[5-(cyclopropylmethoxy)-1,3-benzodioxol-4-yl]-N-[(2S)-1-{4-[(4aS,8aR)-4-(3,4-dimethoxyphenyl)-1-oxo-4a,5,6,7,8,8a-hexahydrophthalazin-2(1H)-yl]piperidin-1-yl}-1-oxo-3-(pyridin-3-yl)propan-2-yl]-5H-pyrrolo[3,2-d]pyrimidine-7-carboxamide] |
| < 1 nM | 1 to 10 nM | COc1ccc(C2=NN(C3CCN(C(=O)[C@@H](Cc4cn(C)c5ccccc45)NC(=O)c4c[nH]c5c(-c6c(OCC7CC7)ccc7c6OCO7)ncnc45)CC3)C(=O)[C@@H]3CCCC[C@H]23)cc1OC [Example 93, 4-[5-(cyclopropylmethoxy)-1,3-benzodioxol-4-yl]-N-[(2R)-1-{4-[(4aS,8aR)-4-(3,4-dimethoxyphenyl)-1-oxo-4a,5,6,7,8,8a-hexahydrophthalazin-2(1H)-yl]piperidin-1-yl}-3-(1-methyl-1H-indol-3-yl)-1-oxopropan-2-yl]-5H-pyrrolo[3,2-d]pyrimidine-7-carboxamide] |
| 1 to 10 nM | 1 to 10 nM | COc1cc(OCC2CC2)c(-c2ncnc3c(C(=O)N[C@H](Cc4ccc(C(C)(C)C)cc4)C(=O)N4CCC(N5N=C(c6ccc(OC)c(OC)c6)[C@H]6CCCC[C@H]6C5=O)CC4)c(C)[nH]c23)cc1F [Example 5, N-[(2R)-3-(4-tert-butylphenyl)-1-{4-[(4aS,8aR)-4-(3,4-dimethoxyphenyl)-1-oxo-4a,5,6,7,8,8a-hexahydrophthalazin-2(1H)-yl]piperidin-1-yl}-1-oxopropan-2-yl]-4-[2-(cyclopropylmethoxy)-5-fluoro-4-methoxyphenyl]-6-methyl-5H-pyrrolo[3,2-d]pyrimidine-7-carboxamide] |
| < 1 nM | 1 to 10 nM | COc1ccc(C2=NN(C3CCN(C(=O)[C@H](Cc4cccs4)NC(=O)c4c[nH]c5c(-c6c(OCC7CC7)ccc7c6OCO7)ncnc45)CC3)C(=O)[C@@H]3CCCC[C@H]23)cc1OC [Example 75, 4-[5-(cyclopropylmethoxy)-1,3-benzodioxol-4-yl]-N-[(2S)-1-{4-[(4aS,8aR)-4-(3,4-dimethoxyphenyl)-1-oxo-4a,5,6,7,8,8a-hexahydrophthalazin-2(1H)-yl]piperidin-1-yl}-1-oxo-3-(thiophen-2-yl)propan-2-yl]-5H-pyrrolo[3,2-d]pyrimidine-7-carboxamide] |
| > 10 nM | 1 to 10 nM | COc1ccc(C2=NN(C3CCN(C(=O)[C@@H](Cc4ccccc4)NC(=O)c4c[nH]c5c(-c6c(OCC7CC7)ccc7c6OCO7)ncnc45)CC3)C(=O)[C@H]3CCCC[C@@H]23)cc1OC [Example 45, 4-[5-(cyclopropylmethoxy)-1,3-benzodioxol-4-yl]-N-[(2R)-1-{4-[(4aR,8aS)-4-(3,4-dimethoxyphenyl)-1-oxo-4a,5,6,7,8,8a-hexahydrophthalazin-2(1H)-yl]piperidin-1-yl}-1-oxo-3-phenylpropan-2-yl]-5H-pyrrolo[3,2-d]pyrimidine-7-carboxamide] |
| < 1 nM | < 1 nM | COc1ccc(C2=NN(C3CCN(C(=O)[C@@H](Cc4ccc(O)cc4)NC(=O)c4c[nH]c5c(-c6c(OCC7CC7)ccc7c6OCO7)ncnc45)CC3)C(=O)[C@@H]3CCCC[C@H]23)cc1OC [Example 52, 4-[5-(cyclopropylmethoxy)-1,3-benzodioxol-4-yl]-N-[(2R)-1-{4-[(4aS,8aR)-4-(3,4-dimethoxyphenyl)-1-oxo-4a,5,6,7,8,8a-hexahydrophthalazin-2(1H)-yl]piperidin-1-yl}-3-(4-hydroxyphenyl)-1-oxopropan-2-yl]-5H-pyrrolo[3,2-d]pyrimidine-7-carboxamide] |
| 1 to 10 nM | 1 to 10 nM | COc1ccc(C2=NN(C3CCN(C(=O)[C@@H](Cc4ccccc4)NC(=O)c4c[nH]c5c(-c6c(OCC7CC7)ccc7c6OCO7)ncnc45)CC3)C(=O)C3(CCCC3)C2)cc1OC [Example 123, 4-[5-(cyclopropylmethoxy)-1,3-benzodioxol-4-yl]-N-[(2R)-1-{4-[9-(3,4-dimethoxyphenyl)-6-oxo-7,8-diazaspiro[4.5]dec-8-en-7-yl]piperidin-1-yl}-1-oxo-3-phenylpropan-2-yl]-5H-pyrrolo[3,2-d]pyrimidine-7-carboxamide] |
| 1 to 10 nM | < 1 nM | COc1ccc(C2=NN(C3CCN(C(=O)[C@@H](Cc4ccccc4C(F)(F)F)NC(=O)c4c[nH]c5c(-c6c(OCC7CC7)ccc7c6OCO7)ncnc45)CC3)C(=O)[C@@H]3CCCC[C@H]23)cc1OC [Example 33, 4-[5-(cyclopropylmethoxy)-1,3-benzodioxol-4-yl]-N-{(2R)-1-{4-[(4aS,8aR)-4-(3,4-dimethoxyphenyl)-1-oxo-4a,5,6,7,8,8a-hexahydrophthalazin-2(1H)-yl]piperidin-1-yl}-1-oxo-3-[2-(trifluoromethyl)phenyl]propan-2-yl}-5H-pyrrolo[3,2-d]pyrimidine-7-carboxamide] |
| 1 to 10 nM | 1 to 10 nM | COc1ccc(C2=NN(C3CCN(C(=O)[C@@H](Cc4ccc(-c5ccccc5)cc4)NC(=O)c4c(C)[nH]c5c(-c6c(OCC7CC7)ccc7c6OCO7)ncnc45)CC3)C(=O)[C@@H]3CCCC[C@H]23)cc1OC [Example 12, N-[(2R)-3-(biphenyl-4-yl)-1-{4-[(4aS,8aR)-4-(3,4-dimethoxyphenyl)-1-oxo-4a,5,6,7,8,8a-hexahydrophthalazin-2(1H)-yl]piperidin-1-yl}-1-oxopropan-2-yl]-4-[5-(cyclopropylmethoxy)-1,3-benzodioxol-4-yl]-6-methyl-5H-pyrrolo[3,2-d]pyrimidine-7-carboxamide] |
| < 1 nM | < 1 nM | COc1ccc(C2=NN(C3CCN(C(=O)[C@@H](Cc4c[nH]c5ccccc45)NC(=O)c4c[nH]c5c(-c6c(OCC7CC7)ccc7c6OCO7)ncnc45)CC3)C(=O)[C@@H]3CCCC[C@H]23)cc1OC [Example 91, 4-[5-(cyclopropylmethoxy)-1,3-benzodioxol-4-yl]-N-[(2R)-1-{4-[(4aS,8aR)-4-(3,4-dimethoxyphenyl)-1-oxo-4a,5,6,7,8,8a-hexahydrophthalazin-2(1H)-yl]piperidin-1-yl}-3-(1H-indol-3-yl)-1-oxopropan-2-yl]-5H-pyrrolo[3,2-d]pyrimidine-7-carboxamide] |
| < 1 nM | < 1 nM | COc1ccc(C2=NN(C3CCN(C(=O)[C@H](Cc4cccs4)NC(=O)c4c(C)[nH]c5c(-c6c(OCC7CC7)ccc7c6OCO7)ncnc45)CC3)C(=O)[C@@H]3CCCC[C@H]23)cc1OC [Example 74, 4-[5-(cyclopropylmethoxy)-1,3-benzodioxol-4-yl]-N-[(2S)-1-{4-[(4aS,8aR)-4-(3,4-dimethoxyphenyl)-1-oxo-4a,5,6,7,8,8a-hexahydrophthalazin-2(1H)-yl]piperidin-1-yl}-1-oxo-3-(thiophen-2-yl)propan-2-yl]-6-methyl-5H-pyrrolo[3,2-d]pyrimidine-7-carboxamide] |
| 1 to 10 nM | 1 to 10 nM | COc1ccc(C2=NN(C3CCN(C(=O)[C@H](Cc4ccc(F)cc4)NC(=O)c4c[nH]c5c(-c6c(OCC7CC7)ccc7c6OCO7)ncnc45)CC3)C(=O)[C@@H]3CCCC[C@H]23)cc1OC [Example 47, 4-[5-(cyclopropylmethoxy)-1,3-benzodioxol-4-yl]-N-[(2S)-1-{4-[(4aS,8aR)-4-(3,4-dimethoxyphenyl)-1-oxo-4a,5,6,7,8,8a-hexahydrophthalazin-2(1H)-yl]piperidin-1-yl}-3-(4-fluorophenyl)-1-oxopropan-2-yl]-5H-pyrrolo[3,2-d]pyrimidine-7-carboxamide] |
| < 1 nM | 1 to 10 nM | CC[C@H](C)[C@H](NC(=O)c1c[nH]c2c(-c3c(OCC4CC4)ccc4c3OCO4)ncnc12)C(=O)N1CCC(N2N=C(c3ccc(OC)c(OC)c3)[C@H]3CCCC[C@H]3C2=O)CC1 [Example 71, 4-[5-(cyclopropylmethoxy)-1,3-benzodioxol-4-yl]-N-[(2S,3S)-1-{4-[(4aS,8aR)-4-(3,4-dimethoxyphenyl)-1-oxo-4a,5,6,7,8,8a-hexahydrophthalazin-2(1H)-yl]piperidin-1-yl}-3-methyl-1-oxopentan-2-yl]-5H-pyrrolo[3,2-d]pyrimidine-7-carboxamide] |
| 1 to 10 nM | 1 to 10 nM | COc1cc(OCC2CC2)c(-c2ncnc3c(C(=O)N[C@@H](Cc4cccc(C)c4)C(=O)N4CCC(N5N=C(c6ccc(OC)c(OC)c6)[C@H]6CCCC[C@H]6C5=O)CC4)c(C)[nH]c23)cc1F [Example 2, 4-[2-(cyclopropylmethoxy)-5-fluoro-4-methoxyphenyl]-N-[(2S)-1-{4-[(4aS,8aR)-4-(3,4-dimethoxyphenyl)-1-oxo-4a,5,6,7,8,8a-hexahydrophthalazin-2(1H)-yl]piperidin-1-yl}-3-(3-methylphenyl)-1-oxopropan-2-yl]-6-methyl-5H-pyrrolo[3,2-d]pyrimidine-7-carboxamide] |
